Like-named read-outs stand apart in the source and are kept apart here.
What was measured:
Assay type in all cases: in vivo
Sagittaria trifolia [1] = assay: Field transplant rice test, applied 0 DAT, ST; details: 0 h, read-out: Percent Inhibition, ST; for inhibition at 375 g/ha: 0.375 Kg/Ha; for inhibition at 750 g/ha: 0.75 Kg/Ha; for inhibition at 1500 g/ha: 1.5 Kg/Ha; for inhibition at 3000 g/ha: 3.0 Kg/Ha
Description: (§1) The test data in Table III for all compounds was obtained under identical test conditions. The weeds used in the tests herein have the following abbreviations in the tables: Echinochloa crus-galli (EC), Monochloria vaginalis (MV), Cyperus Serotinus (CS), Eleocharis Kuroguwai (EK) and Sagittaria trifolia (ST).
(§2) In further comparative tests, a preferred compound of this invention (Example 1) was tested in the field with prior art Compounds A-D. These tests were conducted under conditions reflecting herbicide application times generally favorable to all herbicides in the test. The timing of application of herbicides to transplant rice is very important, whether, as in some instances, prior to transplanting the rice; in other instances, at the time of transplanting or else after transplanting. Application times are conventionally referred to as "days before transplant" (DBT) or "days after transplant" ("DAT"). The field test data in Table IV was obtained from a test in which the herbicides were applied at the time of transplant, i.e., "0 DAT", with observations being made weekly up to six weeks after transplant ("WAT") beginning at two weeks after transplant; for illustrative and representative purposes, only the early, middle and late period observations, i.e., 2 WAT, 4 WAT and 6 WAT, are shown in Table IV. The data in Table IV is for rates of application common to all herbicides in the test, i.e., from 3.0 kg/ha (2.67 lb/A) down to 0.375 kg/ha (0.34 lb/A). All herbicides were applied at their actual or expected use rates, i.e., as granules containing 2.5% by weight herbicide for the compound of Example 1, Compounds B, C and D and 5.0% by weight for Compound A.

Cyperus serotinus = assay: Field transplant rice test, applied 0 DAT, CS; details: 0 h, read-out: Percent Inhibition, CS; for inhibition at 375 g/ha: 0.375 Kg/Ha; for inhibition at 750 g/ha: 0.75 Kg/Ha; for inhibition at 1500 g/ha: 1.5 Kg/Ha; for inhibition at 3000 g/ha: 3.0 Kg/Ha
Description: as §1, §2

Sagittaria trifolia [2] = assay: Field transplant rice test, applied 9 DAT, ST; details: 216 h, read-out: Percent Inhibition, ST; for inhibition at 375 g/ha: 0.375 Kg/Ha; for inhibition at 750 g/ha: 0.75 Kg/Ha; for inhibition at 1500 g/ha: 1.5 Kg/Ha; for inhibition at 3000 g/ha: 3.0 Kg/Ha
Description: as §1, §2
In Table V are presented field data showing the relative performance of the compound of Example 1 and Compounds A-D applied 9 DAT, with observations being made weekly from 3 WAT to 7 WAT; again, for illustrative and representative purposes, only the early, middle and late period observations are reported in Table V, the herbicide rates and concentrations of active ingredients the same as is shown in Table IV.

Rice = assay: Field transplant rice test, applied 0 DAT, rice injury; details: Oryza sativa, 0 h, read-out: Percent Inhibition, Rice; for inhibition at 375 g/ha: 0.375 Kg/Ha; for inhibition at 750 g/ha: 0.75 Kg/Ha; for inhibition at 1500 g/ha: 1.5 Kg/Ha; for inhibition at 3000 g/ha: 3.0 Kg/Ha
Description: as §2

Monochoria vaginalis = assay: Field transplant rice test, applied 0 DAT, MV; details: Pontederia vaginalis, 0 h, read-out: Percent Inhibition, MV; for inhibition at 375 g/ha: 0.375 Kg/Ha; for inhibition at 750 g/ha: 0.75 Kg/Ha; for inhibition at 1500 g/ha: 1.5 Kg/Ha; for inhibition at 3000 g/ha: 3.0 Kg/Ha
Description: as §1, §2

Eleocharis kuroguwai = assay: Field transplant rice test, applied 0 DAT, EK; details: 0 h, read-out: Percent Inhibition, EK; for inhibition at 375 g/ha: 0.375 Kg/Ha; for inhibition at 750 g/ha: 0.75 Kg/Ha; for inhibition at 1500 g/ha: 1.5 Kg/Ha; for inhibition at 3000 g/ha: 3.0 Kg/Ha
Description: as §1, §2

`CCCOCCN(C(=O)CCl)c1c(CC)cccc1CC` [Compound D, 2',6'-diethyl-N-(n-propoxyethyl)-2-chloroacetanilide] gave an inhibition at 375 g/ha (Sagittaria trifolia [1]; 2 WAT) of 20%, an inhibition at 375 g/ha (Sagittaria trifolia [1]; 4 WAT) of 2% and an inhibition at 375 g/ha (Sagittaria trifolia [1]; 6 WAT) of 0%. It also gave an inhibition at 750 g/ha (Sagittaria trifolia [1]; 2 WAT) of 28%, an inhibition at 750 g/ha (Sagittaria trifolia [1]; 4 WAT) of 10% and an inhibition at 750 g/ha (Sagittaria trifolia [1]; 6 WAT) of 7%. The inhibition at 1500 g/ha (Sagittaria trifolia [1]; 2 WAT) was 23%, the inhibition at 1500 g/ha (Sagittaria trifolia [1]; 4 WAT) was 27% and the inhibition at 1500 g/ha (Sagittaria trifolia [1]; 6 WAT) was 22%. For the same molecule, the inhibition at 3000 g/ha (Sagittaria trifolia [1]; 2 WAT) was 22%, the inhibition at 3000 g/ha (Sagittaria trifolia [1]; 4 WAT) was 28% and the inhibition at 3000 g/ha (Sagittaria trifolia [1]; 6 WAT) was 18%. For the same molecule, the inhibition at 375 g/ha (Cyperus serotinus; 2 WAT) was 82%, the inhibition at 375 g/ha (Cyperus serotinus; 4 WAT) was 65% and the inhibition at 375 g/ha (Cyperus serotinus; 6 WAT) was 33%. It also gave an inhibition at 750 g/ha (Cyperus serotinus; 2 WAT) of 73%, an inhibition at 750 g/ha (Cyperus serotinus; 4 WAT) of 77% and an inhibition at 750 g/ha (Cyperus serotinus; 6 WAT) of 70%. For the same molecule, the inhibition at 1500 g/ha (Cyperus serotinus; 2 WAT) was 92%, the inhibition at 1500 g/ha (Cyperus serotinus; 4 WAT) was 93% and the inhibition at 1500 g/ha (Cyperus serotinus; 6 WAT) was 93%. It also gave an inhibition at 3000 g/ha (Cyperus serotinus; 2 WAT) of 67%, an inhibition at 3000 g/ha (Cyperus serotinus; 4 WAT) of 65% and an inhibition at 3000 g/ha (Cyperus serotinus; 6 WAT) of 60%. It also gave an inhibition at 375 g/ha (Sagittaria trifolia [2]; 3 WAT) of 45%, an inhibition at 375 g/ha (Sagittaria trifolia [2]; 5 WAT) of 12% and an inhibition at 375 g/ha (Sagittaria trifolia [2]; 7 WAT) of 7%. The inhibition at 750 g/ha (Sagittaria trifolia [2]; 3 WAT) was 42%, the inhibition at 750 g/ha (Sagittaria trifolia [2]; 5 WAT) was 25% and the inhibition at 750 g/ha (Sagittaria trifolia [2]; 7 WAT) was 18%. It also gave an inhibition at 1500 g/ha (Sagittaria trifolia [2]; 3 WAT) of 43%, an inhibition at 1500 g/ha (Sagittaria trifolia [2]; 5 WAT) of 25% and an inhibition at 1500 g/ha (Sagittaria trifolia [2]; 7 WAT) of 22%. It also gave an inhibition at 3000 g/ha (Sagittaria trifolia [2]; 3 WAT) of 73%, an inhibition at 3000 g/ha (Sagittaria trifolia [2]; 5 WAT) of 60% and an inhibition at 3000 g/ha (Sagittaria trifolia [2]; 7 WAT) of 52%. The inhibition at 375 g/ha (Rice; 2 WAT) was 0%, the inhibition at 375 g/ha (Rice; 4 WAT) was 3% and the inhibition at 375 g/ha (Rice; 6 WAT) was 2%. For the same molecule, the inhibition at 750 g/ha (Rice; 2 WAT) was 2%, the inhibition at 750 g/ha (Rice; 4 WAT) was 2% and the inhibition at 750 g/ha (Rice; 6 WAT) was 0%. For the same molecule, the inhibition at 1500 g/ha (Rice; 2 WAT) was 10%, the inhibition at 1500 g/ha (Rice; 4 WAT) was 8% and the inhibition at 1500 g/ha (Rice; 6 WAT) was 7%. For the same molecule, the inhibition at 3000 g/ha (Rice; 2 WAT) was 8%, the inhibition at 3000 g/ha (Rice; 4 WAT) was 7% and the inhibition at 3000 g/ha (Rice; 6 WAT) was 5%. It also gave an inhibition at 375 g/ha (Monochoria vaginalis; 2 WAT) of 90%, an inhibition at 375 g/ha (Monochoria vaginalis; 4 WAT) of 95% and an inhibition at 375 g/ha (Monochoria vaginalis; 6 WAT) of 83%. It also gave an inhibition at 750 g/ha (Monochoria vaginalis; 2 WAT) of 100%, an inhibition at 750 g/ha (Monochoria vaginalis; 4 WAT) of 99% and an inhibition at 750 g/ha (Monochoria vaginalis; 6 WAT) of 100%. For the same molecule, the inhibition at 1500 g/ha (Monochoria vaginalis; 2 WAT) was 98%, the inhibition at 1500 g/ha (Monochoria vaginalis; 4 WAT) was 100% and the inhibition at 1500 g/ha (Monochoria vaginalis; 6 WAT) was 100%. It also gave an inhibition at 3000 g/ha (Monochoria vaginalis; 2 WAT) of 100%, an inhibition at 3000 g/ha (Monochoria vaginalis; 4 WAT) of 98% and an inhibition at 3000 g/ha (Monochoria vaginalis; 6 WAT) of 98%. The inhibition at 375 g/ha (Eleocharis kuroguwai; 2 WAT) was 62%, the inhibition at 375 g/ha (Eleocharis kuroguwai; 4 WAT) was 20% and the inhibition at 375 g/ha (Eleocharis kuroguwai; 6 WAT) was 0%. It also gave an inhibition at 750 g/ha (Eleocharis kuroguwai; 2 WAT) of 63%, an inhibition at 750 g/ha (Eleocharis kuroguwai; 4 WAT) of 40% and an inhibition at 750 g/ha (Eleocharis kuroguwai; 6 WAT) of 10%. For the same molecule, the inhibition at 1500 g/ha (Eleocharis kuroguwai; 2 WAT) was 70%, the inhibition at 1500 g/ha (Eleocharis kuroguwai; 4 WAT) was 67% and the inhibition at 1500 g/ha (Eleocharis kuroguwai; 6 WAT) was 47%. The inhibition at 3000 g/ha (Eleocharis kuroguwai; 2 WAT) was 85%, the inhibition at 3000 g/ha (Eleocharis kuroguwai; 4 WAT) was 75% and the inhibition at 3000 g/ha (Eleocharis kuroguwai; 6 WAT) was 22%.

— patent publication US4345938A, “Herbicidal 2-haloacetanilides” (Monsanto Company, priority 1980, dated 1982)
